Blank lines part the entries; values can stand above or below the molecule they belong to.
Assays:
[1] = molecular target: T1, ctATC (ATC domain of C. thermophilum CAD-like protein) (Thermochaetoides thermophila, UniProt G0S583, N2045C/R2238C); experiment: colorimetric carbamoyl aspartate assay; format: biochemical; conditions: 5 mM CP; 50 mM Tris-acetate pH 8.3; 25 °C; 0.1 µM enzyme; substrate inhibition model; range printed jointly for WT and double mutant; disulfide-crosslinked trimer; read-out: S0.5^Asp
T1 construct: gene CTHT_0032600; isolated ATC domain aa 1939-2253; N-terminal His6-MBP cut with PreScission; E. coli BL21(DE3) pLysS; homotrimer, 119 kDa by SEC (ctATC2Cys, similar to WT)
T1 sequence (G0S583 entry or part of it N2045C/R2238C): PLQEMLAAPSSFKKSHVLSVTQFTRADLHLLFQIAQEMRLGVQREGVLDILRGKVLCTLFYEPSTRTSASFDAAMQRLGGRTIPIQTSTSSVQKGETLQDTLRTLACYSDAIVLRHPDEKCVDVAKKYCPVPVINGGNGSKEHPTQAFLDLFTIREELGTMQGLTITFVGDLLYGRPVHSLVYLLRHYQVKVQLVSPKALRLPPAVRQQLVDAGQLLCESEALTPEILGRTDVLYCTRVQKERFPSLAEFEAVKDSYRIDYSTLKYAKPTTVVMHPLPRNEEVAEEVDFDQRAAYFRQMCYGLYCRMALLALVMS

[2] = molecular target: T2, ctATC (ATC domain of C. thermophilum CAD-like protein) (Thermochaetoides thermophila, UniProt G0S583); experiment: colorimetric carbamoyl aspartate assay; format: biochemical; conditions: 5 mM CP; 50 mM Tris-acetate pH 8.3; 25 °C; 0.1 µM enzyme; substrate inhibition model; range printed jointly for WT and double mutant; read-out: S0.5^Asp
T2 construct: gene CTHT_0032600; isolated ATC domain aa 1939-2253; N-terminal His6-MBP cut with PreScission; E. coli BL21(DE3) pLysS; homotrimer, 119 kDa by SEC (ctATC2Cys, similar to WT)
T2 sequence (G0S583 entry or part of it): as the sequence (G0S583 entry or part of it N2045C/R2238C) above, with C107N, C300R counted along it

[3] = molecular target: T2, ctATC (ATC domain of C. thermophilum CAD-like protein); experiment: differential scanning fluorimetry; format: binding; conditions: 1 mM PALA; 5 µM protein; pH 7.0; Tm without PALA 53.9 °C; transition state analog
[4] = molecular target: T1, ctATC (ATC domain of C. thermophilum CAD-like protein); experiment: differential scanning fluorimetry; format: binding; conditions: 1 mM PALA; 5 µM protein; pH 7.0; disulfide-crosslinked trimer; Tm without PALA 73.5 °C; transition state analog
[5] = molecular target: ATC domain of C. thermophilum CAD-like protein with mutations N2045C and R2238C (ctATC2Cys) (Chaetomium thermophilum); experiment: SEC; Superdex 200 10/300 GL in 20 mM Tris-HCl pH 8.0, 150 mM NaCl, room temperature; molecular weight estimated from calibration with standards
[6] = molecular target: ATC domain of C. thermophilum CAD-like protein with mutations N2045C and R2238C (ctATC2Cys) (Chaetomium thermophilum); experiment: crystal structure; crystals of ctATC2Cys free and with 2 mM carbamoyl phosphate (CP), space group P4(3)32, one subunit per asymmetric unit
[7] = molecular target: full-length C. thermophilum CAD-like protein (Chaetomium thermophilum); experiment: not stated; unpublished results: recombinant full-length protein isolated as hexameric particles

Km [1]: 1500 to 2000 µM
Km [2]: 1500 to 2000 µM
Molecule: N[C@@H](CC(=O)O)C(=O)O [Asp, aspartate]

Tm [3]: ~ 90 °C
Tm [4]: ~ 90 °C
Molecule: O=C(O)C[C@H](NC(=O)CP(=O)(O)O)C(=O)O [PALA]

stoichiometry N [5]: 3
stoichiometry N [6]: 3
Molecule: ATC domain of C. thermophilum CAD-like protein with mutations N2045C and R2238C (ctATC2Cys) (domain or fragment)

stoichiometry N [7]: 6
Molecule: full-length C. thermophilum CAD-like protein (natural protein)

Reference: article PMC9863657, “A Tailored Strategy to Crosslink the Aspartate Transcarbamoylase Domain of the Multienzymatic Protein CAD” (Molecules, 2023)
